# Reference: ChEMBL document CHEMBL5360572, “Advances of bioorthogonal coupling reactions in drug development” (Eur J Med Chem, 2023)
# Key:
# [1] = biological target: T1, M-phase inducer phosphatase 1 (Homo sapiens, UniProt P30304); assay: Inhibition of full-length recombinant human CDC25A using OMFP as substrate incubated for 5 to 8 mins by fluorescence based assay
# T1 sequence (P30304 whole entry): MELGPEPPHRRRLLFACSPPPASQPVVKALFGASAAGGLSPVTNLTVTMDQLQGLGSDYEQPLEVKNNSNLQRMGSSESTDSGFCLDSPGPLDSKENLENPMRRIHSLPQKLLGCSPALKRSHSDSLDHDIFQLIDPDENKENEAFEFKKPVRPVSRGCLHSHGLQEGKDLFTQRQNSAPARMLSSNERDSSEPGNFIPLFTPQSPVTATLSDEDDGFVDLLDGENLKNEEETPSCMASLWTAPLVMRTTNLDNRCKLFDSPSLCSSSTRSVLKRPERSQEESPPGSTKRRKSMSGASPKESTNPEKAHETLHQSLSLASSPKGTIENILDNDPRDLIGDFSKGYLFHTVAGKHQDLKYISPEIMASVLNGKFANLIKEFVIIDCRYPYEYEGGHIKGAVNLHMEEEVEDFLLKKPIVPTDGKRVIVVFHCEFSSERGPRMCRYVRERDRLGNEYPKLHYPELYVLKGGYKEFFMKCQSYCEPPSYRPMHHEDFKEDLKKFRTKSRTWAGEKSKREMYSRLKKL
# [2] = biological target: T2, M-phase inducer phosphatase 2 (Homo sapiens, UniProt P30305); assay: Inhibition of full-length recombinant human CDC25B using OMFP as substrate incubated for 5 to 8 mins by fluorescence based assay
# T2 sequence (P30305 whole entry): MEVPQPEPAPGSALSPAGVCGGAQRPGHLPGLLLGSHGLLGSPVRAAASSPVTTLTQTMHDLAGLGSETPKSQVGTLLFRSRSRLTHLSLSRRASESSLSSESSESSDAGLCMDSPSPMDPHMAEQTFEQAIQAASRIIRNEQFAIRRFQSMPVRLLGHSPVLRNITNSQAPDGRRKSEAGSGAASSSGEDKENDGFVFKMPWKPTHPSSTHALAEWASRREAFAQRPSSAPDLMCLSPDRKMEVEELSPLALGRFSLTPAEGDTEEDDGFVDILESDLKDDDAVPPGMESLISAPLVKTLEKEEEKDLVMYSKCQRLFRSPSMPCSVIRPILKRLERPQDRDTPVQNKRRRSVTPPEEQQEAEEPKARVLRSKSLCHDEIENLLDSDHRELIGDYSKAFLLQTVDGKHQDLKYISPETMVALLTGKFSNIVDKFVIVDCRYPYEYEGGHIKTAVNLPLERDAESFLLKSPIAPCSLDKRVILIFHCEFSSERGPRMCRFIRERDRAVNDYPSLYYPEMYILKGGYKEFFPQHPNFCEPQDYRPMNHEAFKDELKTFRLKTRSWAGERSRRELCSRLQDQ
# [3] = biological target: T3, M-phase inducer phosphatase 3 (Homo sapiens, UniProt P30307); assay: Inhibition of full-length recombinant human CDC25C using OMFP as substrate incubated for 5 to 8 mins by fluorescence based assay
# T3 sequence (P30307 whole entry): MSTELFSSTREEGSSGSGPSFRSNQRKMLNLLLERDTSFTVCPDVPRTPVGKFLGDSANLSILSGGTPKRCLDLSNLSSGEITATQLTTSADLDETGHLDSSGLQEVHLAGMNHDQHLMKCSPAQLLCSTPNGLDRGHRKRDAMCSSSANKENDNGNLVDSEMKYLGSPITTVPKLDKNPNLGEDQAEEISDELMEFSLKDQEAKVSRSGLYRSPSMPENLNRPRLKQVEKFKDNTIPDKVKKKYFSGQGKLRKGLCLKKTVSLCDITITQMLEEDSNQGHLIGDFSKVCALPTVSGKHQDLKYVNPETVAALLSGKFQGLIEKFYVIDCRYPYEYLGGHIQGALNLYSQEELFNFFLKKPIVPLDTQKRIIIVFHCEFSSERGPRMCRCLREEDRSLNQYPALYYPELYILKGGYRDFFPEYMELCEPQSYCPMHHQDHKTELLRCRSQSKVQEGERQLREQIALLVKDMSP
smiles,measurement,setting,value
CC(NC1=C(Cl)C(=O)c2cccnc2C1=O)c1cn(-c2ccc(CO)cc2)nn1 (stereo not drawn),IC50,[1],150 nM
same,IC50,[2],190 nM
same,IC50,[3],60 nM
